Experimental data published in patent US20250346883A1, “DENSITY GRADIENT CHEMOSTAT FOR ADAPTED LABORATORY EVOLUTION” (priority 2022, published 2025).
Values after ≈ are worked out from the molar mass of the structure shown. Values joined by “and” are separate entries in the source; they are usually repeats but may differ in a detail not shown here. Identical values can stand only once.

What was measured:
[1] = test system: Escherichia coli MG1655 ancestor and MICALE-grown samples; assay: Chaotropic stress adaptation analysis (OD600 growth in increasing MgCl2); type: cell-based
Experimental: (§1) The adaptation analysis (step 205) is a qualitative test to compare the ability to grow in the presence of the stressor between the ancestor and MICALE-grown samples. Turbid broth cultures from isolated colonies were diluted 1:100 in sterile broth with increasing amounts of stressor. These dilutions were vortexed before pipetting 0.2 mL in triplicate onto a 96-well plate. The microplate reader then measured OD600 every 15 minutes over the span of four days while incubating the plate at 37° C. with the plate lid on. […] Referring to FIG. 3B, for each OD600 curve, the maximum rate of growth over a span of 75 minutes is designated the exponential growth rate, u, and the subtracted difference between the maximum and minimum OD600 measurements, AOD, is designated the cell proliferation. The high salinity and chaotropic stress adaptation analyses were completed once whereas the antibiotic analysis was repeated for two total trials. Growth metrics were extrapolated from the growth curves (described below) for numerical comparisons between samples and to fit a logistic dose-response curve of each sample's response in a stressor. For each sample, a logistic curve was fit to the triplicate relative exponential growth rate or relative cell proliferation values across all media types (FIG. 3C). This curve represents a sample's relative response to increasing doses of a stressor, known as a dose-response curve. The value for ED50 is the effective dose of the stressor at which a 50% decrease in the maximal response (100%) is observed.
For the chaotropic stress run, samples from both two weeks and four weeks into the run were selected for analysis (Table 5, below). The samples, including the ancestor, were cultured in media with 0, 200, and 250 mM MgCl2. The IL samples were not plated on 200 mM MgCl2 plates due to limited resources. The ancestor was grown on plates with the same MgCl2 concentration as the samples to see if the culturing process was causing genetic change significant enough to affect the growth phenotypes observed during the adaptation analysis. Cultures were diluted into media with 0, 200, 250 and 300 mM MgCl2 then pipetted onto the 96-well-plate to start the four-day analysis.
(§2) To statistically compare growth between samples, two parameters were extracted from the OD600 curves resulting from the adaptation analysis: relative exponential growth rate and relative cell proliferation (FIG. 3B). To find the exponential growth rate, μ, growth curves are normally fit to a standard sigmoidal function, such as the Gompertz model. However, these OD600 curves were too irregular to be well fit with a standard function. Instead, a rolling regression was fitted onto natural log transformed OD600 curves to produce linear regression lines between six measurements at a time (75 total minutes), shifting by 1 measurement, over the curve. The exponential growth rate from the maximum slope obtained by the rolling regression is 0.44 hr^−1. The darker lines on the upper right section of the curve represent where the maximum slope occurs. (FIG. 4).
(§3) The exponential growth rate was determined to be the maximum slope of any of the regression lines, denoted by μstress for growth curves in media with stressor and μblank for that in blank LB media [Equation 1]. Any slope maxima that appeared to be due from anomalies in the data, such as a quick jump in OD600 after biofilm formation, were filtered out. This ensured that the maximum slope occurred during the time that visually represented exponential growth (near the start of the curve). The triplicate μblank calculations were averaged to obtain the values representing that sample's growth in media without stress, μcontrol [Equation 2]. The percent relative exponential growth rate was obtained by dividing each μ by the μcontrol, then multiplying by 100 [Equation 3]. Finally, the three relative exponential growth rate values for each sample and media type were averaged [Equation 4]. […]

[2] = test system: Escherichia coli MG1655 ancestor and MICALE-grown samples; assay: Antibiotic stress adaptation analysis (OD600 growth in increasing ciprofloxacin); type: cell-based; conditions: for relative cell proliferation / relative exponential growth rate: 10×MIC
Experimental: as §1
The samples chosen for the antibiotic-stress adaptation analysis were from the end of the antibiotic stress MICALE run, sampled on the 14th day (Table 7, below). Samples were cultured grown in media with no antibiotic, 0.6 μg/mL ciprofloxacin (10×MIC,) and 15 μg/mL ciprofloxacin ([…]) were transferred into 5 mL of LB broth with the same amount of antibiotic. The only exception is the BL sample was grown in 0.6 μg/mL ciprofloxacin then transferred to LB broth with 15 μg/mL ciprofloxacin. Once turbid, the broth cultures were diluted into media with no antibiotic, 0.6 μg/mL, 6 μg/mL, and 60 μg/mL ciprofloxacin then pipetted onto a 96-well plate and placed in the microplate reader to start the analysis. A portion of the broth cultures used for the analysis were frozen in glycerol. For a repeat trial of the adaptation analysis, these frozen stocks were revived in broth media matching the level of antibiotic in which they had originally been cultured.
as §2
The exponential growth rate was determined to be the maximum slope of any of the regression lines, denoted by μstress for growth curves in media with stressor and μblank for that in blank LB media [Equation 1]. Any slope maxima that appeared to be due from anomalies in the data, such as a quick jump in OD600 after biofilm formation, were filtered out. This ensured that the maximum slope occurred during the time that visually represented exponential growth (near the start of the curve). […]

[3] = test system: Escherichia coli; conditions: cited from earlier work
[4] = test system: Escherichia coli MG1655 ancestor and MICALE-grown samples; assay: High salinity adaptation analysis (OD600 growth in increasing NaCl); type: cell-based
Experimental: as §1
The samples chosen from the high salinity run were frozen stocks of the PL, SL, and BL samples that had been taken at the end of the run (two weeks) and one SL sample from the first 25 hours (Table 2, below). The samples used in the adaptation analysis had been in media with a NaCl concentration of 60 ppt, and the ancestor was cultured on blank LB media. The samples were diluted into LB media with 5, 45, 60, 75, and 90 ppt NaCl then plated on the 96-well plate.
as §2, §3

[5] = sample PL-000-Col1, 200 mM MgCl2

[Cl-].[Cl-].[Mg+2] [MgCl2, magnesium chloride]
growth in 300 mM MgCl2 ([1]; all samples incl. ancestor, 300 mM MgCl2): No samples showed signs of growth
average exponential growth rate (relative) ([1]; sample Anc-000, 200 mM MgCl2): 41.7%
relative cell proliferation ([1]; sample Anc-000, 200 mM MgCl2): 74.0%
growth in 250 mM MgCl2 ([1]; sample Anc-000, 250 mM MgCl2): showed signs of growth
average exponential growth rate (relative) ([1]; sample Anc-200, 200 mM MgCl2): 32.0%
relative cell proliferation ([1]; sample Anc-200, 200 mM MgCl2): 94.0%
average exponential growth rate (relative) ([1]; sample IL-000, 200 mM MgCl2): 33.5%
relative cell proliferation ([1]; sample IL-000, 200 mM MgCl2): 86.5%
maximum OD600 ([1]; sample PL-000-Col1, one triplicate well, 200 mM MgCl2): 1.479
average exponential growth rate (relative) [1, 5]: 54.0%
relative cell proliferation [1, 5]: 130% and 130.3%
growth in 250 mM MgCl2 ([1]; sample PL-000-Col1, 250 mM MgCl2 (one well)): showed signs of growth
relative cell proliferation ([1]; sample PL-000-Col2, 200 mM MgCl2 (considered as no growth)): less than 5%
growth in media with MgCl2 ([1]; sample PL-000-Col2, any media with MgCl2): could not grow
average exponential growth rate (relative) ([1]; sample PL-200, 200 mM MgCl2): 26.5%
relative cell proliferation ([1]; sample PL-200, 200 mM MgCl2): 129.3%
average exponential growth rate (relative) ([1]; sample SL-W2, 200 mM MgCl2): 22.2%
highest average OD600 ([1]; sample SL-W2, 200 mM MgCl2): 1.399
relative cell proliferation ([1]; sample SL-W2, 200 mM MgCl2): 140.8%
average exponential growth rate (relative) ([1]; sample SL-W4, 200 mM MgCl2): 42.3%
relative cell proliferation ([1]; sample SL-W4, 200 mM MgCl2): 102.2%

O=C(O)c1cn(C2CC2)c2cc(N3CCNCC3)c(F)cc2c1=O [ciprofloxacin]
growth in media with ciprofloxacin ([2]; Ancestor, any media with ciprofloxacin (10-1000×MIC), both trials): did not show signs of growth
concentration at which cell proliferation value of less than 5% was reached (no growth) ([2]; Trial 1, Ancestor): 10 ×MIC
concentration at which cell proliferation value of less than 5% was reached (no growth) ([2]; Trial 1, sample BL-15): 1000 ×MIC
concentration at which cell proliferation value of less than 5% was reached (no growth) ([2]; Trial 1, sample IL-00): 100 ×MIC
average cell proliferation ([2]; Trial 1, sample IL-00, 100×MIC): 0.6%
average cell proliferation ([2]; Trial 1, sample IL-00, 1000×MIC (likely evaporation, not growth)): 5.3%
concentration at which cell proliferation value of less than 5% was reached (no growth) ([2]; Trial 1, sample IL-15-Col1): 1000 ×MIC
relative growth rate ([2]; Trial 1, sample IL-15-Col1, 100×MIC): 54.4%
concentration at which cell proliferation value of less than 5% was reached (no growth) ([2]; Trial 1, sample IL-15-Col2): 1000 ×MIC
relative cell proliferation ([2]; Trial 1, sample IL-15-Col2): 61.5%
relative exponential growth rate ([2]; Trial 1, sample IL-15-Col2): 107.5%
concentration at which cell proliferation value of less than 5% was reached (no growth) ([2]; Trial 1, sample PL-00): 10 ×MIC
concentration at which cell proliferation value of less than 5% was reached (no growth) ([2]; Trial 1, sample PL-0.6): 100 ×MIC
cell proliferation values ([2]; Trial 1, sample SL-15, all concentrations (10-1000×MIC)): over 5%
concentration at which average cell proliferation lower than 5% was reached ([2]; Trial 2, Anc): 10 ×MIC
relative exponential growth rate ([2]; Trial 2, sample BL-15): 97.2%
relative growth rate ([2]; Trial 2, sample BL-15, 100×MIC): 66.6%
concentration at which average cell proliferation lower than 5% was reached ([2]; Trial 2, sample IL-00): 100 ×MIC
relative exponential growth rate ([2]; Trial 2, sample IL-15-Col1): 90.5%
concentration at which average cell proliferation lower than 5% was reached ([2]; Trial 2, sample IL-15-Col2): 1000 ×MIC
relative cell proliferation ([2]; Trial 2, sample IL-15-Col2): 90.9%
relative exponential growth rate ([2]; Trial 2, sample IL-15-Col2): 101.6%
concentration at which average cell proliferation lower than 5% was reached ([2]; Trial 2, sample PL-00): 100 ×MIC
concentration at which average cell proliferation lower than 5% was reached ([2]; Trial 2, sample PL-0.6): 100 ×MIC
relative exponential growth rate ([2]; Trial 2, sample SL-15): 90.6%
average cell proliferation ([2]; Trial 2, samples IL-15-Col1, SL-15 and BL-15, 1000×MIC (growth in all levels tested)): above 5%
growth (OD600 curves) in ciprofloxacin ([2]; samples IL-15-Col1, IL-15-Col2, SL-15 and BL-15, both trials): had OD600 curves in ciprofloxacin up to 100×MIC
growth in 100 or 1,000×MIC ([2]; samples PL-00, PL-0.6 and IL-00, overall, both trials): could not grow
MIC, literature's value [3]: 0.05 µg/mL (≈ 0.151 µM)

[Cl-].[Na+] [NaCl, sodium chloride]
decrease of exponential growth rate from 60 to 75 ppt NaCl ([4]; sample Ancestor): 22.9%
relative growth rate ([4]; sample Ancestor, 75 ppt NaCl): 15.5%
average cell proliferation ([4]; sample Ancestor, 90 ppt NaCl (no growth)): less than 5%
increase of exponential growth rate from 60 to 75 ppt NaCl ([4]; sample BL): 7.7%
relative growth rate ([4]; sample BL, 60 ppt NaCl): 32.5%
relative growth rate ([4]; sample BL, 75 ppt NaCl): 40.2%
relative growth rate ([4]; sample BL, 90 ppt NaCl): 42.8%
decrease of exponential growth rate from 60 to 75 ppt NaCl ([4]; sample PL): 35.0%
relative growth rate ([4]; sample PL, 75 ppt NaCl): 18.3%
relative growth rate ([4]; sample PL, 90 ppt NaCl): 25.9%
decrease of exponential growth rate from 60 to 75 ppt NaCl ([4]; sample SLearly): 28.9%
average cell proliferation ([4]; sample SLearly, 75 and 90 ppt NaCl (no growth)): less than 5%
relative growth rate ([4]; sample SLearly, 75 ppt NaCl): 3.1%
decrease of exponential growth rate from 60 to 75 ppt NaCl ([4]; sample SLfinal): 7.8%
relative growth rate ([4]; sample SLfinal, 75 ppt NaCl): 19.7%
relative growth rate ([4]; sample SLfinal, 90 ppt NaCl): 27.0%
average cell proliferation ([4]; three samples taken at the end of the run (PL, SLfinal, BL), every level of salinity (5-90 ppt NaCl)): over 5%
